Assay results reported in US20240285571A1, “METHODS OF TREATING BONE INFECTIONS” (MICROBION CORPORATION, priority 2020, published 2024).
Read-outs that look alike come from different tables or passages of the source.

What was measured:
B. fragilis = assay: Agar dilution MIC, anaerobes (Example 5); type: cell-based; conditions: Bacteroides fragilis, ATCC25285; B. fragilis MMX 123 (ATCC 25285); QC; read-out: MIC
C. difficile [1] = conditions: C. difficile MMX 4381 (ATCC 700057); cited from earlier work
C. difficile [2] = assay: Agar dilution MIC, anaerobes (Example 5); type: cell-based, Clostridium difficile; conditions: Clostridioides difficile, read-out: MIC
C. parapsilosis [3] = conditions: C. parapsilosis MMX 2323 (ATCC 22019), cited from earlier work
C. glabrata = assay: Broth microdilution MIC, yeast (Example 5); type: cell-based; conditions: FLUR
Experimental: (§1) Test and Comparator Agents: The test agents were stored at room temperature until assayed. All test agents were suspended and diluted in 100% dimethylsulfoxide (DMSO), and were ultimately tested at a final concentration of 0.06-64 μg/mL. The stock solutions were allowed to stand for at least 1 hr prior to use to auto-sterilize.
(§2) The susceptibility of yeast isolates was determined by broth microdilution in RPMI medium (HyClone Laboratories, Logan, UT; Lot No. AZC184041B) buffered with 0.165 M MOPS (Calbiochem, Billerica, MA; Lot No. 2694962). The pH of the medium was adjusted to 7.0 with 1 N NaOH, sterile filtered using a 0.2 μm PES filter, and stored at 4° C. until used.
(§3) Broth Microdilution MC Testing (Aerobic Bacteria and Yeast): The broth microdilution assay method employed for the susceptibility testing of aerobic bacteria (excluding N. gonorrhoeae which was evaluated by agar dilution) and yeast essentially followed the procedures described by CLSI (3, 4, 7, 8) and employed automated liquid handlers to conduct serial dilutions and liquid transfers. Automated liquid handlers included the Multidrop 384 (Labsystems, Helsinki, Finland) and Biomek 2000 (Beckman Coulter, Fullerton CA). The wells in columns 2-12 in standard 96-well microdilution plates (Costar 3795) were filled with 150 μl of the correct diluent. These would become the ‘mother plates’ from which ‘daughter’ or test plates would be prepared. The drugs (300 μL at 40× the desired top concentration in the test plates) were dispensed into the appropriate well in Column 1 of the mother plates. The Biomek 2000 was used to make serial two-fold dilutions through Column 11 in the “mother plate”. The wells of Column 12 contained no drug and ultimately served as the organism growth control wells.
(§4) The daughter plates were loaded with 185 μL per well of the appropriate test media using the Multidrop 384. The daughter plates were prepared using the Biomek FX which transferred 5 μL of drug solution from each well of a mother plate to the corresponding well of the correct daughter plate in a single step.
(§5) A standardized inoculum of each organism was prepared per CLSI methods (3, 7). Isolated colonies of each test isolate were picked from the primary plate and a suspension was prepared to equal a 0.5 McFarland turbidity standard. Standardized suspensions were then diluted […] (1:100 for yeast, 1:20 for bacteria). After dilution, the inoculum suspensions were then transferred to compartments of sterile reservoirs divided by length (Beckman Coulter), and the Biomek 2000 was used to inoculate all plates. Daughter plates were placed on the Biomek 2000 in reverse orientation so that plates were inoculated from low to high drug concentration.
(§6) The Biomek 2000 delivered 10 μL of standardized inoculum into each well of the appropriate daughter plate for an additional 1:20 dilution. […] The final concentration of DMSO (if used as a solvent) in the test well was 2.5%.
(§7) Plates were stacked 4 high, covered with a lid on the top plate, placed into plastic bags, and incubated at 35° C. for approximately 24-48 hr for all yeast isolates and 16-24 hr for aerobic bacteria. Plates were viewed from the bottom using a plate viewer. […] MIC endpoints for the test agents and control compounds were read per CLSI criteria (3, 7).

C. tropicalis = assay: Broth microdilution MIC, yeast (Example 5); type: cell-based; conditions: FLUR
Experimental: as §1, §2, §3, §4, §5, §6, §7

C. albicans = assay: Broth microdilution MIC, yeast (Example 5); type: cell-based; conditions: Sensitive
Experimental: as §1, §2, §3, §4, §5, §6, §7

C. parapsilosis [4] = assay: Broth microdilution MIC, yeast (Example 5); type: cell-based
Experimental: as §1, §2, §3, §4, §5, §6, §7

E. faecium = assay: Broth microdilution MIC (Example 5); type: cell-based; conditions: VRE vanA
Experimental: (§8) Test and Comparator Agents: The test agents were stored at room temperature until assayed. […] The stock solutions were allowed to stand for at least 1 hr prior to use to auto-sterilize.
(§9) TestMedia: Test media were prepared and stored in accordance with guidelines from CLSI (4, 6, 7).
(§10) Broth Microdilution MC Testing (Aerobic Bacteria and Yeast): The broth microdilution assay method employed for the susceptibility testing of aerobic bacteria (excluding N. gonorrhoeae which was evaluated by agar dilution) and yeast essentially followed the procedures described by CLSI (3, 4, 7, 8) and employed automated liquid handlers to conduct serial dilutions and liquid transfers. […] These would become the ‘mother plates’ from which ‘daughter’ or test plates would be prepared. The drugs (300 μL at 40× the desired top concentration in the test plates) were dispensed into the appropriate well in Column 1 of the mother plates. The Biomek 2000 was used to make serial two-fold dilutions through Column 11 in the “mother plate”. The wells of Column 12 contained no drug and ultimately served as the organism growth control wells.
(§11) The daughter plates were prepared using the Biomek FX which transferred 5 μL of drug solution from each well of a mother plate to the corresponding well of the correct daughter plate in a single step.
as §5
(§12) The Biomek 2000 delivered 10 μL of standardized inoculum into each well of the appropriate daughter plate for an additional 1:20 dilution.
as §7

S. aureus = assay: Broth microdilution MIC (Example 5); type: cell-based, Staphylococcus aureus
Experimental: as §8, §9, §10, §11, §5, §12, §7

E. cloacae = assay: Broth microdilution MIC (Example 5); type: cell-based, Enterobacter cloacae; conditions: E. cloacae MMX 5981 (ATCC BAA-2468); NDM-1
Experimental: as §8, §9
Broth Microdilution MC Testing (Aerobic Bacteria and Yeast): The broth microdilution assay method employed for the susceptibility testing of aerobic bacteria (excluding N. gonorrhoeae which was evaluated by agar dilution) and yeast essentially followed the procedures described by CLSI (3, 4, 7, 8) and employed automated liquid handlers to conduct serial dilutions and liquid transfers. […] These would become the ‘mother plates’ from which ‘daughter’ or test plates would be prepared. The drugs (300 μL at 40× the desired top concentration in the test plates) were dispensed into the appropriate well in Column 1 of the mother plates. The Biomek 2000 was used to make serial two-fold dilutions through Column 11 in the “mother plate”. […]
Plates were stacked 4 high, covered with a lid on the top plate, placed into plastic bags, and incubated at 35° C. for approximately 24-48 hr for all yeast isolates and 16-24 hr for aerobic bacteria. […] MIC endpoints for the test agents and control compounds were read per CLSI criteria (3, 7).

A. baumannii = assay: Broth microdilution MIC (Example 5); type: cell-based, Acinetobacter baumannii
Experimental: as §8, §9, §10, §11, §5, §12, §7

E. faecalis = assay: Broth microdilution MIC (Example 5); type: cell-based, Enterococcus faecalis; conditions: VRE
Experimental: as §8, §9, §10, §11, §5, §12, §7

E. coli [5] = assay: Broth microdilution MIC (Example 5); type: cell-based, Escherichia coli
Experimental: as §8, §9, §10, §11, §5, §12, §7

K. pneumoniae = assay: Broth microdilution MIC (Example 5); type: cell-based, Klebsiella pneumoniae
Experimental: as §8, §9, §10, §11, §5, §12, §7

P. aeruginosa [6] = conditions: P. aeruginosa MMX 103 (ATCC 27853); cited from earlier work
P. aeruginosa [7] = assay: Broth microdilution MIC (Example 5); type: cell-based, Pseudomonas aeruginosa
Experimental: as §8, §9, §10, §11, §5, §12, §7

E. coli [8] = conditions: E. coli MMX 102 (ATCC 25922); cited from earlier work

CCc1c(Cl)c(O)c(Cl)c(O)c1C(=O)O[C@H]1[C@H](O)[C@H](OC)[C@H](OC/C2=C\C=C\C[C@H](O)/C(C)=C/[C@H](CC)[C@@H](O[C@@H]3OC(C)(C)[C@@H](OC(=O)C(C)C)[C@H](O)[C@@H]3O)/C(C)=C/C(C)=C/C[C@@H]([C@@H](C)O)OC2=O)O[C@@H]1C [Fidaxomicin]
0.5 µg/mL: MIC (C. difficile [2]; C. difficile MMX 8272, ribotype 255, CCI) | MIC (C. difficile [2]; C. difficile MMX 8279, ribotype 005, CCR) | MIC (C. difficile [2]; C. difficile MMX 8281, ribotype 010, CCR) | MIC (C. difficile [2]; NCTC13307, C. difficile MMX 5681 (NCTC 13307), ribotype 012, CCR)
0.25 µg/mL: MIC (C. difficile [2]; ATCC700057, C. difficile MMX 4381 (ATCC 700057), QC, CCI)
> 64 µg/mL: MIC (B. fragilis)
(0.06-0.25) μg/mL: CLSI QC range of MIC (C. difficile [1])
4 µg/mL: MIC (C. difficile [2]; NCTC13336, C. difficile MMX 5680 (NCTC 13336), ribotype 027, CCI METR)

C[C@@H]1[C@H](O)[C@@H](C)/C=C/C=C/C=C/C=C/C=C/C=C/C=C/[C@H](O[C@@H]2O[C@H](C)[C@@H](O)[C@H](N)[C@@H]2O)C[C@@H]2O[C@](O)(C[C@@H](O)C[C@@H](O)[C@H](O)CC[C@@H](O)C[C@@H](O)CC(=O)O[C@H]1C)C[C@H](O)[C@H]2C(=O)O [Amphotericin B, reference compound]
0.5, 0.5 μg/mL: MIC (C. tropicalis; C. tropicalis MMX 7360, 24 hr) | MIC (C. tropicalis; C. tropicalis MMX 7360, 48 hr) | MIC (C. albicans; C. albicans MMX 7039, 24 hr) | MIC (C. albicans; C. albicans MMX 7039, 48 hr) | MIC (C. parapsilosis [4]; C. parapsilosis MMX 7555, FLUR, 24 hr) | MIC (C. parapsilosis [4]; C. parapsilosis MMX 7555, FLUR, 48 hr)
1 µg/mL: MIC (C. glabrata; C. glabrata MMX 7086, 48 hr) | MIC (C. glabrata; C. glabrata MMX 7318, 48 hr) | MIC (C. tropicalis; C. tropicalis MMX 7247, 48 hr) | MIC (C. tropicalis; C. tropicalis MMX 7248, 48 hr) | MIC (C. parapsilosis [4]; C. parapsilosis MMX 2323 (ATCC 22019), QC, 48 hr) | MIC (C. parapsilosis [4]; C. parapsilosis MMX 7370, FLUR, 48 hr)
0.25 µg/mL: MIC (C. albicans; C. albicans MMX 7055, 24 hr)
0.5 to 4 µg/mL: CLSI QC range of MIC (C. parapsilosis [3]; 48 hr)
0.5 µg/mL: MIC (C. glabrata; C. glabrata MMX 7086, 24 hr) | MIC (C. glabrata; C. glabrata MMX 7318, 24 hr) | MIC (C. tropicalis; C. tropicalis MMX 7247, 24 hr) | MIC (C. tropicalis; C. tropicalis MMX 7248, 24 hr) | MIC (C. albicans; C. albicans MMX 7055, 48 hr) | MIC (C. parapsilosis [4]; C. parapsilosis MMX 2323 (ATCC 22019), QC, 24 hr) | MIC (C. parapsilosis [4]; C. parapsilosis MMX 7370, FLUR, 24 hr)
0.25 to 2 µg/mL: CLSI QC range of MIC (C. parapsilosis [3]; 24 hr)

Gentamicin [reference compound]
(0.5-2) μg/mL: CLSI QC range of MIC (P. aeruginosa [6])
>64 µg/mL: MIC (E. faecium; E. faecium MMX 485) | MIC (E. faecium; E. faecium MMX 752) | MIC (E. cloacae) | MIC (A. baumannii; A. baumannii MMX 2592, MDR) | MIC (A. baumannii; A. baumannii MMX 2593, MDR) | MIC (E. faecalis; E. faecalis MMX 8960) | MIC (E. faecalis; E. faecalis MMX 8962) | MIC (E. coli [5]; E. coli MMX 5980 (ATCC BAA-2469), NDM-1) | MIC (E. coli [5]; E. coli MMX 8425, ESBL, LevR CAZR GmR) | MIC (K. pneumoniae; K. pneumoniae MMX 5979, NDM-1) | MIC (P. aeruginosa [7]; P. aeruginosa MMX 4654, IMP-7)
0.5 µg/mL: MIC (A. baumannii; A. baumannii MMX 3372, MDR)
8 µg/mL: MIC (A. baumannii; A. baumannii MMX 4651 (NCTC 13304), MDR, OXA-27) | MIC (E. faecalis; E. faecalis MMX 8961) | MIC (K. pneumoniae; K. pneumoniae MMX 4694, KPC-3) | MIC (P. aeruginosa [7]; P. aeruginosa MMX 1381, MDR) | MIC (P. aeruginosa [7]; P. aeruginosa MMX 2562, MDR)
64 µg/mL: MIC (E. coli [5]; E. coli MMX 8423, ESBL, LevR CAZR GmR) | MIC (K. pneumoniae; K. pneumoniae MMX 4623, KPC-2)
1 µg/mL: MIC (E. coli [5]; E. coli MMX 102 (ATCC 25922), QC) | MIC (K. pneumoniae; K. pneumoniae MMX 4653, KPC-3) | MIC (K. pneumoniae; K. pneumoniae MMX 4683, KPC-2) | MIC (K. pneumoniae; K. pneumoniae MMX 4685, ESBL) | MIC (P. aeruginosa [7]; P. aeruginosa MMX 103 (ATCC 27853), QC)
0.25 µg/mL: MIC (S. aureus; S. aureus MMX 5373, MRSA) | MIC (S. aureus; S. aureus MMX 6311, MRSA) | MIC (S. aureus; S. aureus MMX 9204, MRSA) | MIC (S. aureus; S. aureus MMX 9205, MRSA) | MIC (E. coli [5]; E. coli MMX 8424, ESBL, CAZR) | MIC (K. pneumoniae; K. pneumoniae MMX 4622, KPC-2) | MIC (K. pneumoniae; K. pneumoniae MMX 4684, ESBL)
0.12 µg/mL: MIC (S. aureus; S. aureus MMX 101 (ATCC 29213), QC, MSSA) | MIC (S. aureus; S. aureus MMX 9203, MRSA) | MIC (A. baumannii; A. baumannii MMX 3373, Sensitive)
(0.25-1) μg/mL: CLSI QC range of MIC (E. coli [8])
4 µg/mL: MIC (P. aeruginosa [7]; P. aeruginosa MMX 3991, MDR) | MIC (P. aeruginosa [7]; P. aeruginosa MMX 4697, VIM-2)
